Test system: MV4-11 cells
Test: Inhibition of MV4-11 cell proliferation (CellTiterGlo, 72 h)
Type: cell-based
Details: Homo sapiens; 72 h growth inhibition; uncertainty ±20%

Row | Compound | IC50
1 | O=C(Nc1ccc(N2CCCC2)cc1)N1CCC(c2ncnc3cc(OCCN4CCOC4=O)ccc23)CC1 [Example 147, 4-{7-[2-(2-Oxo-oxazolidin-3-yl)-ethoxy]-quinazolin-4-yl}-piperidine-1-carboxylic acid (4-pyrrolidin-1-yl-phenyl)-amide] | 0.051 µM
2 | CCN(CC)CCCOc1ccc2c(C3CCN(C(=O)Nc4ccc(N5CCOCC5)cc4)CC3)ncnc2c1 [Example 134, 4-[7-(3-Diethylamino-propoxy)-quinazolin-4-yl]-piperidine-1-carboxylic acid (4-morpholin-4-yl-phenyl)-amide] | 0.043 µM
3 | CN(C)C(=O)N1CCN(c2ccc3c(C4CCN(C(=O)Nc5ccc(N6CCOCC6)cc5)CC4)ncnc3c2)CC1 [Example 143, 4-{4-[1-(4-Morpholin-4-yl-phenylcarbamoyl)-piperidin-4-yl]-quinazolin-7-yl}-piperazine-1-carboxylic acid dimethylamide] | 0.039 µM
4 | CN1CCN(CCOc2ccc3c(C4CCN(C(=O)Nc5ccc(N6CCOCC6)cc5)CC4)ncnc3c2)CC1 [Example 156, 4-{7-[2-(4-Methyl-piperazin-1-yl)-ethoxy]-quinazolin-4-yl}-piperidine-1-carboxylic acid (4-morpholin-4-yl-phenyl)-amide] | 0.074 µM
5 | CC(C)Oc1ccc(NC(=O)N2CCC(c3ncnc4ccc(C#CCN5CCOCC5)cc34)CC2)cc1 [Example 15, 4-[6-(3-Morpholin-4-yl-prop-1-ynyl)-quinazolin-4-yl]-piperidine-1-carboxylic acid (4-isopropoxy-phenyl)-amide] | 0.03 µM
6 | O=C(Nc1ccc(N2CCCC2)cc1)N1CCC(c2ncnc3cc(N4CCNC4=O)ccc23)CC1 [Compound 178, 4-[7-(2-Oxo-imidazolidin-1-yl)-quinazolin-4-yl]-piperidine-1-carboxylic acid (4-pyrrolidin-1-yl-phenyl)-amide] | 0.011 µM
7 | O=C(COc1ccc2c(C3CCN(C(=O)Nc4ccc(N5CCCC5)cc4)CC3)ncnc2c1)N1CCOCC1 [Example 172, 4-[7-(2-Morpholin-4-yl-2-oxo-ethoxy)-quinazolin-4-yl]-piperidine-1-carboxylic acid (4-pyrrolidin-1-yl-phenyl)-amide] | 0.248 µM
8 | CN1CCN(CCOc2ccc3c(C4CCN(C(=O)Nc5ccc(N6CCCC6)cc5)CC4)ncnc3c2)CC1=O [Compound 202, 4-{7-[2-(4-Methyl-3-oxo-piperazin-1-yl)-ethoxy]-quinazolin-4-yl}-piperidine-1-carboxylic acid (4-pyrrolidin-1-yl-phenyl)-amide] | 0.074 µM
9 | CC(=O)N1CC(Oc2ccc3c(C4CCN(C(=O)Nc5ccc(N6CCCC6)cc5)CC4)ncnc3c2)C1 [Example 170, 4-[7-(1-Acetyl-azetidin-3-yloxy)-quinazolin-4-yl]-piperidine-1-carboxylic acid (4-pyrrolidin-1-yl-phenyl)-amide] | 0.097 µM
10 | CCN1CCN(c2ccc3c(C4CCN(C(=O)Nc5ccc(N6CCCC6)cc5)CC4)ncnc3c2)CC1 [Compound 187, 4-[7-(4-Ethyl-piperazin-1-yl)-quinazolin-4-yl]-piperidine-1-carboxylic acid (4-pyrrolidin-1-yl-phenyl)-amide] | 0.021 µM
11 | O=C(CO)N1CCN(c2ccc3c(C4CCN(C(=O)Nc5ccc(N6CCCC6)cc5)CC4)ncnc3c2)CC1 [Compound 201, 4-{7-[4-(2-Hydroxy-acetyl)-piperazin-1-yl]-quinazolin-7-yl}-piperidine-1-carboxylic acid (4-pyrrolidin-1-yl-phenyl)-amide] | 0.016 µM
12 | CN1CCN(c2ccc3c(C4CCN(C(=O)Nc5ccc(N6CCCC6)cc5)CC4)ncnc3c2)CC1 [Example 159, 4-[7-(4-Methyl-piperazin-1-yl)-quinazolin-4-yl]-piperidine-1-carboxylic acid (4-pyrrolidin-1-yl-phenyl)-amide] | 0.006 µM
13 | CN(C)C(=O)N1CCN(CCCOc2ccc3c(C4CCN(C(=O)Nc5ccc(N6CCCC6)cc5)CC4)ncnc3c2)CC1 [Example 165, 4-(3-{4-[1-(4-Pyrrolidin-1-yl-phenylcarbamoyl)-piperidin-4-yl]-quinazolin-7-yloxy}-propyl)-piperazine-1-carboxylic acid dimethylamide] | 0.018 µM
14 | COc1cc2ncnc(C3CCN(C(=O)Nc4ccc(C5CCCCC5)cc4)CC3)c2cc1OC [Example 21, 4-(6,7-Dimethoxy-quinazolin-4-yl)-piperidine-1-carboxylic acid (4-cyclohexyl-phenyl)-amide] | 0.027 µM
15 | O=C(Nc1ccc(N2CCCC2)cc1)N1CCC(c2ncnc3cc(OC4CCOCC4)ccc23)CC1 [Compound 189, 4-[7-(Tetrahydro-pyran-4-yloxy)-quinazolin-4-yl]-piperidine-1-carboxylic acid (4-pyrrolidin-1-yl-phenyl)-amide] | 0.286 µM
16 | CN1CCN(CCCOc2cc3ncnc(C4CCN(C(=O)Nc5ccc(N6CCOCC6)cc5)CC4)c3cc2F)CC1 [Compound 205, 4-{6-Fluoro-7-[3-(4-methyl-piperazin-1-yl)-propoxy]-quinazolin-4-yl}-piperidine-1-carboxylic acid (4-morpholin-4-yl-phenyl)-amide] | 0.078 µM
17 | O=C(Nc1ccc(N2CCCC2)cc1)N1CCC(c2ncnc3cc(OCCN4CCC[C@H]4CO)ccc23)CC1 [Example 152, (S)-4-{7-[2-(2-Hydroxymethyl-pyrrolidin-1-yl)-ethoxy]-quinazolin-4-yl}-piperidine-1-carboxylic acid (4-pyrrolidin-1-yl-phenyl)-amide] | 0.021 µM

Row | Compound | IC50
18 | O=C(Nc1ccc(N2CCCC2)cc1)N1CCC(c2ncnc3cc(N4CCC4)ccc23)CC1 [Example 173, 4-(7-Azetidin-1-yl-quinazolin-4-yl)-piperidine-1-carboxylic acid (4-pyrrolidin-1-yl-phenyl)-amide] | 0.016 µM
19 | COc1cc2ncnc(C3CCN(C(=O)Nc4ccc5[nH]ccc5c4)CC3)c2cc1OC [Example 23, 4-(6,7-Dimethoxy-quinazolin-4-yl)-piperidine-1-carboxylic acid (1H-indol-5-yl)-amide] | 2.7 µM
20 | COc1cc2ncnc(C3CCN(C(=O)Nc4ccc5ncsc5c4)CC3)c2cc1OC [Example 24, 4-(6,7-Dimethoxy-quinazolin-4-yl)-piperidine-1-carboxylic acid benzothiazol-6-ylamide] | 3.7 µM
21 | COc1cc2ncnc(C3CCN(C(=O)Nc4ccc(N5CCCCC5)cc4)CC3)c2cc1OC [Example 19, 4-(6,7-Dimethoxy-quinazolin-4-yl)-piperidine-1-carboxylic acid (4-piperidin-1-yl-phenyl)-amide] | 0.01 µM
22 | O=C(Nc1ccc(N2CCCC2)cc1)N1CCC(c2ncnc3cc(NCCO)ccc23)CC1 [Example 175, 4-[7-(2-Hydroxy-ethylamino)-quinazolin-4-yl]-piperidine-1-carboxylic acid (4-pyrrolidin-1-yl-phenyl)-amide] | 0.018 µM
23 | CN1CCN(CCCOc2ccc3c(C4CCN(C(=O)Nc5ccc(N6CCCC6)cc5)CC4)ncnc3c2)CC1 [Example 158, 4-{7-[3-(4-Methyl-piperazin-1-yl)-propoxy]-quinazolin-4-yl}-piperidine-1-carboxylic acid (4-pyrrolidin-1-yl-phenyl)-amide] | 0.011 µM
24 | O=C(Nc1ccc(N2CCCC2)cc1)N1CCC(c2ncnc3cc(N4CCC(F)CC4)ccc23)CC1 [Compound 195, 4-[7-(4-Fluoro-piperidin-1-yl)-quinazolin-4-yl]-piperidine-1-carboxylic acid (4-pyrrolidin-1-yl-phenyl)-amide] | 0.017 µM
25 | CCNC(=O)N1CCN(c2ccc3c(C4CCN(C(=O)Nc5ccc(N6CCCC6)cc5)CC4)ncnc3c2)CC1 [Compound 199, 4-{4-[1-(4-Pyrrolidin-1-yl-phenylcarbamoyl)-piperidin-4-yl]-quinazolin-7-yl}-piperazine-1-carboxylic acid ethylamide] | 0.003 µM
26 | CC(=O)N1CCC(COc2ccc3c(C4CCN(C(=O)Nc5ccc(N6CCCC6)cc5)CC4)ncnc3c2)CC1 [Example 163, 4-[7-(1-Acetyl-piperidin-4-ylmethoxy)-quinazolin-4-yl]-piperidine-1-carboxylic acid (4-pyrrolidin-1-yl-phenyl)-amide] | 0.02 µM
27 | O=C(Nc1ccc(N2CCOCC2)cc1)N1CCC(c2ncnc3cc(N4CCN(CCO)CC4)ccc23)CC1 [Example 137, 4-{7-[4-(2-Hydroxy-ethyl)-piperazin-1-yl]-quinazolin-4-yl}-piperidine-1-carboxylic acid (4-morpholin-4-yl-phenyl)-amide] | 0.074 µM
28 | CN(C)[C@@H]1CCN(c2ccc3c(C4CCN(C(=O)Nc5ccc(N6CCOCC6)cc5)CC4)ncnc3c2)C1 [Example 150, (R)-4-[7-(3-Dimethylamino-pyrrolidin-1-yl)-quinazolin-4-yl]-piperidine-1-carboxylic acid (4-morpholin-4-yl-phenyl)-amide] | 0.269 µM
29 | O=C(Nc1ccc(N2CCCC2)cc1)N1CCC(c2ncnc3cc(OCC4CCOCC4)ccc23)CC1 [Compound 188, 4-[7-(Tetrahydro-pyran-4-ylmethoxy)-quinazolin-4-yl]-piperidine-1-carboxylic acid (4-pyrrolidin-1-yl-phenyl)-amide] | 0.067 µM
30 | O=C(Nc1ccc(N2CCOCC2)cc1)N1CCC(c2ncnc3cc(N4CCOCC4)ccc23)CC1 [Example 145, 4-(7-Morpholin-4-yl-quinazolin-4-yl)-piperidine-1-carboxylic acid (4-morpholin-4-yl-phenyl)-amide] | 0.137 µM
31 | O=C(Nc1ccc(N2CCCC2)cc1)N1CCC(c2ncnc3cc(N4CCN(c5ccccn5)CC4)ccc23)CC1 [Compound 192, 4-[7-(4-Pyridin-2-yl-piperazin-1-yl)-quinazolin-4-yl]-piperidine-1-carboxylic acid (4-pyrrolidin-1-yl-phenyl)-amide] | 0.013 µM
32 | O=C(Nc1ccc(N2CCOCC2)cc1)N1CCC(c2ncnc3cc(N4CCNCC4)ccc23)CC1 [Example 140, 4-(7-Piperazin-1-yl-quinazolin-4-yl)-piperidine-1-carboxylic acid (4-morpholin-4-yl-phenyl)-amide] | 0.17 µM
33 | CN(C)CC(=O)N1CCN(c2ccc3c(C4CCN(C(=O)Nc5ccc(N6CCOCC6)cc5)CC4)ncnc3c2)CC1 [Example 144, 4-{7-[4-(2-Dimethylamino-acetyl)-piperazin-1-yl]-quinazolin-4-yl}-piperidine-1-carboxylic acid (4-morpholin-4-yl-phenyl)-amide] | 0.117 µM

Source: patent US20070004660A1, “Synergistic Modulation of Flt3 Kinase Using Alkylquinolines and Alkylquinazolines” (priority 2005, published 2007)
